Measured values: PMC12073438, “Stereoselectivity of In Vivo Processes and Bioactivity of Farrerol Enantiomers” (Molecules, 2025)
Like-named read-outs stand apart in the source and are kept apart here.

How the values were obtained:
CYP2C9 = CYP2C9 (Homo sapiens, UniProt P11712); assay: CYP inhibition in liver microsomes (diclofenac); conditions: IC50, CYP 2C9, marker substrate diclofenac
Experimental: A liver microsome working solution (20 mg/mL) contained potassium phosphate buffer (0.1 M, pH 7.4), hepatic microsomes and marker substrate solution, which phenacetin, diclofenic acid, S-mephenytoinwer, dextromethorphan, midazolam, coumarin and chlorzoxazone used as substrates for […], CYP2C9, CYP2C19, CYP2D6, CYP3A4/5, CYP2A6 and CYP2E1, respectively. In brief, 238.5 µL of liver microsome working solution was placed in a 1 mL EP tube. […] The reaction was started by injecting NADPH (1 mM), and the resulting mixture was incubated at 37 °C for 10 min. […] Each incubation was conducted in triplicate (n = 3).
An API 4000 LC/tandem mass spectrometry was used to analyze the concentration of metabolites of various chemical agents using a validated mode. An Atlantis T3 column (2.1 mm × 50 mm, 5 μm) was utilized, employing mobile phases consisting of a 0.1% formic acid solution (A) and a 0.1% acetonitrile formate solution (B). […] ESI was conducted in positive ion mode.

CYP2C19 = CYP2C19 (Homo sapiens, UniProt P33261); assay: CYP inhibition in liver microsomes (S-mephenytoin); assay type: in vitro ADME; conditions: CYP 2C19, marker substrate S-mephenytoin
Chain of CYP2C19 (P33261 whole entry): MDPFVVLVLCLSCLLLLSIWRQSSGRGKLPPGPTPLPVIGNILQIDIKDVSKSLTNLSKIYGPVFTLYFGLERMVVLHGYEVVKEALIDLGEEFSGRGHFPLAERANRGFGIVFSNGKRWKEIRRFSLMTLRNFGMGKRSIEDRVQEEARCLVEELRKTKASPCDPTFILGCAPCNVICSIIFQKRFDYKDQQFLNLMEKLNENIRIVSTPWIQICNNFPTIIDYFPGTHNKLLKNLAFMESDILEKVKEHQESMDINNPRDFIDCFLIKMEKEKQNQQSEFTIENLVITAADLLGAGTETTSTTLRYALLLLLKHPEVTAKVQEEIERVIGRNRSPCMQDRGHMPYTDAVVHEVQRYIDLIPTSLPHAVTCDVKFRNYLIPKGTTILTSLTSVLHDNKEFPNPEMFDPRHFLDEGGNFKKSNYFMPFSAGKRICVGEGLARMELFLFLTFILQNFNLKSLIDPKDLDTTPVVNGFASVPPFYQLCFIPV
Experimental: (§1) A liver microsome working solution (20 mg/mL) contained potassium phosphate buffer (0.1 M, pH 7.4), hepatic microsomes and marker substrate solution, which phenacetin, diclofenic acid, S-mephenytoinwer, dextromethorphan, midazolam, coumarin and chlorzoxazone used as substrates for […], CYP2C9, CYP2C19, CYP2D6, CYP3A4/5, CYP2A6 and CYP2E1, respectively. In brief, 238.5 µL of liver microsome working solution was placed in a 1 mL EP tube. […] The reaction was started by injecting NADPH (1 mM), and the resulting mixture was incubated at 37 °C for 10 min. After centrifuging at 4000 rpm for 15 min, the supernatant was transferred and analyzed using LC-MS/MS to detect the corresponding metabolites. Each incubation was conducted in triplicate (n = 3).
An API 4000 LC/tandem mass spectrometry was used to analyze the concentration of metabolites of various chemical agents using a validated mode. An Atlantis T3 column (2.1 mm × 50 mm, 5 μm) was utilized, employing mobile phases consisting of a 0.1% formic acid solution (A) and a 0.1% acetonitrile formate solution (B). […] MRM was utilized to quantify each metabolite, detecting the following transitions: m/z 152.1/110 for acetaminophen, 312.1/230.0 for 4′-Hydroxydiclofenac, 235.0/150.0 for 4′-hydroxymephentoin, 258.2/199.1 for Dextrorphan, 342.1/203.0 for 1′-hydroxymidazolam, 161.1/133.1 for hydroxycoumarin, and 184.0/120.0 for 6-hydroxyclozoxadone.

CYP2A6 = target: T1, CYP2A6 (Homo sapiens, UniProt P11509); assay: CYP inhibition in liver microsomes (coumarin)
T1 sequence (P11509 1-494): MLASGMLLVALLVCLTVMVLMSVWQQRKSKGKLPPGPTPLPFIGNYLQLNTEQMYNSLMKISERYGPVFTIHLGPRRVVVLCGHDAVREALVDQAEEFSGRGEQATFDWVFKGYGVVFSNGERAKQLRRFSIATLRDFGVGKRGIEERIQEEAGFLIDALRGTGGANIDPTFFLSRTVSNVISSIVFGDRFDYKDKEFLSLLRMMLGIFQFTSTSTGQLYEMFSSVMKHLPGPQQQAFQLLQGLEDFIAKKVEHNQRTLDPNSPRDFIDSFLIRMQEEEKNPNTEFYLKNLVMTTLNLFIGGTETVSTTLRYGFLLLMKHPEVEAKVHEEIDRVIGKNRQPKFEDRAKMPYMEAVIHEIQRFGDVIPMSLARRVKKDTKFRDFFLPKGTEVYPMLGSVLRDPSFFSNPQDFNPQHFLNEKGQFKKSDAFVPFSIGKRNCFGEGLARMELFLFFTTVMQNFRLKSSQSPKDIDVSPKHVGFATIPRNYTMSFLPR
Experimental: as §1
An API 4000 LC/tandem mass spectrometry was used to analyze the concentration of metabolites of various chemical agents using a validated mode. An Atlantis T3 column (2.1 mm × 50 mm, 5 μm) was utilized, employing mobile phases consisting of a 0.1% formic acid solution (A) and a 0.1% acetonitrile formate solution (B). […] As for the detection of CYP 2E1 metabolite, the Flow composition was as follows: 0–0.30 min, 10% B; 0.30–1.30 min, 10–55% B; 1.30–1.50 min, 55–95% B; 1.50–2.00 min, 95% B; 2.00–2.01 min, 95–10% B; the low rate was 0.85 mL/min. ESI was conducted in positive ion mode. MRM was utilized to quantify each metabolite, detecting the following transitions: m/z 152.1/110 for acetaminophen, 312.1/230.0 for 4′-Hydroxydiclofenac, 235.0/150.0 for 4′-hydroxymephentoin, 258.2/199.1 for Dextrorphan, 342.1/203.0 for 1′-hydroxymidazolam, 161.1/133.1 for hydroxycoumarin, and 184.0/120.0 for 6-hydroxyclozoxadone.

[1] = Rat single-pass intestinal perfusion; assay type: in vivo, Sprague–Dawley rats
Experimental: The absorption rate constant (Ka) and permeability coefficient (Peff) were calculated using the following equation: […] The single-pass intestinal perfusion studies in rats were conducted following previously established methodologies. […] Before the surgical procedure, animals were fasted overnight with water ad libitum. Rats were anesthetized via intraperitoneal administration of 20% urethane at a dosage of 6 mL/kg and subsequently positioned on a heating pad. Their normal body temperature (37.0 ± 0.5 °C) was sustained using an infrared lamp. A midline incision was made to open the abdomen, allowing for the exposure of 35–45 cm of the small intestine, along with a 10 cm segment […]. This segment was cannulated with Teflon tubing (0.42 cm in diameter) at both the proximal and distal ends, which were then secured with silk sutures. This segment was gently flushed with warmed normal saline to remove intestinal contents. Then, farrerol racemate maintained at 37 °C was perfused through the lumen of the small intestine at a flow rate of 0.2 mL/min. After a 30 min equilibration period to reach steady-state outlet concentrations, the perfusate samples were collected every 15 min for 120 min in micro-centrifuge tubes. The length of the small intestinal segment was measured following the last collection. All collected samples were stored at −20 °C. 500 μL of collected intestinal perfusion samples were placed in an EP tube and then dried with nitrogen at 37 °C. The residue was redissolved and precipitated with 200 μL of methanol by vortex-mixing for 5 min. Following centrifugation at 13,000 rpm for 10 min, the supernatant samples were analyzed using the previously validated RP-HPLC-DAD method. The chiral HPLC technique employed for the analysis of farreol enantiomers in intestinal perfusate aligned with the chromatographic procedure outlined in Section 3.4.3. This method underwent validation for parameters including linearity, range, extraction recovery, specificity, precision, and accuracy. […] The extraction recoveries of farrerol in intestinal perfusate at three different concentration levels ranged from 90.57% to 95.57%.

[2] = Colon, farrerol racemate 66.00 μg·mL^−1
[3] = Colon, farrerol racemate 132.00 μg·mL^−1
[4] = Colon, farrerol racemate 132.00 μg·mL^−1 + verapamil
[5] = Colon, farrerol racemate 180.00 μg·mL^−1
[6] = Duodenum, farrerol racemate 66.00 μg·mL^−1
[7] = Duodenum, farrerol racemate 132.00 μg·mL^−1
[8] = Duodenum, farrerol racemate 132.00 μg·mL^−1 + verapamil
[9] = Duodenum, farrerol racemate 180.00 μg·mL^−1
[10] = Ileum, farrerol racemate 66.00 μg·mL^−1
[11] = Ileum, farrerol racemate 132.00 μg·mL^−1
[12] = Ileum, farrerol racemate 132.00 μg·mL^−1 + verapamil
[13] = Ileum, farrerol racemate 180.00 μg·mL^−1
[14] = Jejunum, farrerol racemate 66.00 μg·mL^−1
[15] = Jejunum, farrerol racemate 132.00 μg·mL^−1
[16] = Jejunum, farrerol racemate 132.00 μg·mL^−1 + verapamil
[17] = Jejunum, farrerol racemate 180.00 μg·mL^−1

Chain of CYP2C9 (P11712 whole entry): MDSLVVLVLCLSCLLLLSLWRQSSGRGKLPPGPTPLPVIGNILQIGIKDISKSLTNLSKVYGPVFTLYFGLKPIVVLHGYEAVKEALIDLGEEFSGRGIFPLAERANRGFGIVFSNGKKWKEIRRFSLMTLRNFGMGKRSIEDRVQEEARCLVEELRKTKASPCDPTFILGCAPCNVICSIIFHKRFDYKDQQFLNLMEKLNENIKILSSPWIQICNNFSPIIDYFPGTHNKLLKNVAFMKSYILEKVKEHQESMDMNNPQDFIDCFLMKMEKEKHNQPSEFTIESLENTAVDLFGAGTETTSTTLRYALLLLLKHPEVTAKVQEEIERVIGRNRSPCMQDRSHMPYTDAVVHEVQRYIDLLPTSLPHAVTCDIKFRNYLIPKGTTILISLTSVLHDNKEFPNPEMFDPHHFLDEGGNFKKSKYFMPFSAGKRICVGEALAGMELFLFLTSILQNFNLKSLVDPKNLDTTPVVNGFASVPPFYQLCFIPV

Compound | IC50 (CYP2C9) | IC50 (CYP2C19) | IC50 (CYP2A6) | Peff [1, 2] | Peff [1, 3] | Peff [1, 4] | Peff [1, 5] | Peff [1, 6] | Peff [1, 7] | Peff [1, 8] | Peff [1, 9] | Peff [1, 10] | Peff [1, 11] | Peff [1, 12] | Peff [1, 13] | Peff [1, 14] | Peff [1, 15] | Peff [1, 16] | Peff [1, 17] | IC50 (CYP2A6; CYP 2A6, marker substrate coumarin, liver microsomes)
Cc1c(O)c(C)c2c(c1O)C(=O)CC(c1ccc(O)cc1)O2 (single isomer, unassigned; (+)) [(+)-farrerol, 2,3-dihydro-5,7-dihydroxy-2-(4-hydroxyphenyl)-6,8-dimethyl-4-benzopyrone] | 1.97 µM | 1.61 µM | > 50 µM | 1.09 ± 0.37 ×10^−1 cm·min^−1 | 0.93 ± 0.09 ×10^−1 cm·min^−1 | 1.41 ± 0.23 ×10^−1 cm·min^−1 | 1.04 ± 0.12 ×10^−1 cm·min^−1 | 1.32 ± 0.03 ×10^−1 cm·min^−1 | 1.16 ± 0.11 ×10^−1 cm·min^−1 | 1.42 ± 0.17 ×10^−1 cm·min^−1 | 1.30 ± 0.14 ×10^−1 cm·min^−1 | 1.12 ± 0.22 ×10^−1 cm·min^−1 | 0.87 ± 0.08 ×10^−1 cm·min^−1 | 0.77 ± 0.11 ×10^−1 cm·min^−1 | 0.79 ± 0.04 ×10^−1 cm·min^−1 | 1.16 ± 0.23 ×10^−1 cm·min^−1 | 0.73 ± 0.03 ×10^−1 cm·min^−1 | 1.12 ± 0.10 ×10^−1 cm·min^−1 | 1.03 ± 0.06 ×10^−1 cm·min^−1 | –
Cc1c(O)c(C)c2c(c1O)C(=O)CC(c1ccc(O)cc1)O2 (single isomer, unassigned; (-)) [(−)-farrerol, 2,3-dihydro-5,7-dihydroxy-2-(4-hydroxyphenyl)-6,8-dimethyl-4-benzopyrone] | 1.57 µM | 2.07 µM | – | 1.12 ± 0.41 ×10^−1 cm·min^−1 | 0.95 ± 0.10 ×10^−1 cm·min^−1 | 1.42 ± 0.23 ×10^−1 cm·min^−1 | 1.12 ± 0.17 ×10^−1 cm·min^−1 | 1.33 ± 0.03 ×10^−1 cm·min^−1 | 1.17 ± 0.10 ×10^−1 cm·min^−1 | 1.43 ± 0.17 ×10^−1 cm·min^−1 | 1.33 ± 0.11 ×10^−1 cm·min^−1 | 1.14 ± 0.22 ×10^−1 cm·min^−1 | 0.89 ± 0.10 ×10^−1 cm·min^−1 | 0.77 ± 0.11 ×10^−1 cm·min^−1 | 0.78 ± 0.07 ×10^−1 cm·min^−1 | 1.17 ± 0.24 ×10^−1 cm·min^−1 | 0.74 ± 0.05 ×10^−1 cm·min^−1 | 1.12 ± 0.10 ×10^−1 cm·min^−1 | 1.07 ± 0.10 ×10^−1 cm·min^−1 | > 50 µM
